{
  "source": "patent US20160221991A1",
  "about": "“NOVEL TRIAZINE DERIVATIVE” (CARNA BIOSCIENCES, INC., priority 2013, published 2016)",
  "system": "anti-IgM antibody BCR stimulation-induced intracellular calcium influx in Ramos cells",
  "assay": "Inhibition test on the change of Ramos intracellular calcium ion",
  "assay_type": "cell-based",
  "conditions": "Fluo-8NW fluorescence, anti-IgM 2.0 μg/mL, FIG. 1",
  "protocol": "The intracellular BTK inhibition by the compounds of the present invention was verified by measuring the effects of the compounds of the present invention on “anti-IgM antibody BCR stimulation-induced intracellular calcium influx”. One day before measurement, the Ramos cells were cultured as being suspended again at a cell density of 1.0×10^6 cells/mL in a fresh growth medium (growth medium as used in Test Example 2), and the cells were recovered next day by centrifugation and washed with RPMI-1640 medium supplemented with 5% penicillin-streptomycin (Nacalai Tesque, Inc.) (Medium 1). […] The Ramos intracellular calcium ion concentration was measured as a fluorescent intensity of the calcium indicator Fluo-8NW using a microplate reader (SynergyH1) (Ex/Em=490/525 nm) After measuring the baseline for 15 seconds, 50 μL of the anti-IgM antibody (Invitrogen, #H15100) diluted with Medium 2 to 10.4 μg/mL was added to each well described above (final concentration of 2.0 μg/mL) to effect BCR stimulation, and then the measurement was continued further for 150 seconds.",
  "data": [
    {"smiles": "Cn1cc(Nc2nc(N)nc(-c3ccnc(-n4ccc5cc(C6CC6)cc(F)c5c4=O)c3CO)n2)cc1C#N", "note": "[Example 3, 4-({4-Amino-6-[2-(6-cyclopropyl-8-fluoro-1-oxoisoquinolin-2(1H)-yl)-3-(hydroxymethyl)pyridin-4-yl]-1,3,5-triazin-2-yl}amino)-1-methyl-1H-pyrrole-2-carbonitrile]", "values": [
      {"measurement": "inhibition of anti-IgM antibody BCR stimulation-induced intracellular calcium ion variation", "value": "in a concentration-dependent manner from a low concentration"}
    ]}
  ]
}
